Laboratory results reported in PMC11901818, “Salicylaldehyde Benzoylhydrazones with Anticancer Activity and Selectivity: Design, Synthesis, and In Vitro Evaluation” (Molecules, 2025).
Read-outs that look alike come from different tables or passages of the source.

Key:
[1] = tested on: breast cancer cell lines (MCF-7, MDA-MB-231); assay: MTT test, average over breast cancer cell lines; format: cell-based, human; details: Avg. breast cancer
Experimental: (§1) The ligand efficiencies (LEs), obtained by the ratio between pIC50 and the number of heavy atoms in the molecule, along with the selectivity indices (SIs), calculated by comparing IC50 of normal cells to IC50 of cancer cells, are presented in Table 4.
(§2) The spectrum of anti-tumor activity of the experimental compounds was assessed against human malignant cell lines of leukemic (HL-60, BV-173, K-562, AR-230, and SKW-3) and epithelial (MCF-7 and MDA-MB-231) origin, as well as normal human embryonic kidney cells (HEK-293). All cell lines were purchased from the German Collection of Microorganisms and Cell Cultures (DSMZ GmbH, Braunschweig, Germany), and cell cultures were maintained and grown in the appropriate medium specified by the provider and incubated under standard conditions of 37 °C and 5% humidified CO2 atmosphere.
The cytotoxicity assessment of the methoxysalicylaldehyde methoxybenzoylhydrazone series was performed using the Mosmann MTT method, a validated technique for evaluating cell viability. Cells in the exponential growth phase were harvested and seeded (100 µL/well) in 96-well plates at a suitable density (3 × 10^5 cells/well for suspension leukemic cultures and 1.5 × 10^5 cells/well for adherent epithelial cells). After a 24 h incubation period, the cells were treated with serial dilutions of the tested compounds within an appropriate concentration range. […] These crystals were then dissolved in an isopropyl alcohol solution containing 5% formic acid before measuring absorbance at 550 nm using a microplate reader Labexim LMR-1 (Vienna, Austria). The recorded absorbance values were blanked against MTT and isopropanol solution and normalized to the mean value of the untreated control (representing 100% cell viability). The experimental data were analyzed using non-linear regression analysis in GraphPad Prism® software 8.0 (San Diego, CA, USA), from which semi-logarithmic “dose–response” curves were constructed, and the half-inhibitory concentrations (IC50) of the tested compounds were calculated.

[2] = tested on: HL-60 cells (acute promyelocytic leukemia); assay: Mosmann MTT cell viability test, HL-60; format: cell-based, human; details: for IC50: Homo sapiens, HL-60, MTT, 72 h exposure, ± standard deviation; for Selectivity index (SI): IC50 HEK-293 / IC50 HL-60
Experimental: (§3) The anticancer activity of the dimethoxy hydrazone derivatives was tested against a panel of malignant human cell lines of different tissue origin and molecular characteristics, including several in vitro leukemia models (acute promyelocytic leukemia HL-60; bcr-abl+ chronic myeloid leukemia cell lines BV-173, K-562, and AR-230; and T-cell leukemia SKW-3), as well as the two major phenotypes of human breast adenocarcinoma (hormone-sensitive MCF-7 cells with high progesterone (PR) and estrogen receptor α (ERα) expression and triple-negative breast adenocarcinoma (TNBC) MDA-MB-231 lacking ERα, PR, and human epidermal growth factor receptor 2 (HER2)). The existence and degree of cancer selectivity of the tested compounds were evaluated against normal human embryonic kidney HEK-293 cells.
as §2
(§4) The cytotoxicity assessment of the methoxysalicylaldehyde methoxybenzoylhydrazone series was performed using the Mosmann MTT method, a validated technique for evaluating cell viability. Cells in the exponential growth phase were harvested and seeded (100 µL/well) in 96-well plates at a suitable density (3 × 10^5 cells/well for suspension leukemic cultures and 1.5 × 10^5 cells/well for adherent epithelial cells). After a 24 h incubation period, the cells were treated with serial dilutions of the tested compounds within an appropriate concentration range. Following a 72 h exposure, an MTT substrate solution (5 mg/mL in PBS) was added to each well. After an additional 4 h incubation, purple insoluble formazan crystals formed. These crystals were then dissolved in an isopropyl alcohol solution containing 5% formic acid before measuring absorbance at 550 nm using a microplate reader Labexim LMR-1 (Vienna, Austria). The recorded absorbance values were blanked against MTT and isopropanol solution and normalized to the mean value of the untreated control (representing 100% cell viability). The experimental data were analyzed using non-linear regression analysis in GraphPad Prism® software 8.0 (San Diego, CA, USA), from which semi-logarithmic “dose–response” curves were constructed, and the half-inhibitory concentrations (IC50) of the tested compounds were calculated.

[3] = tested on: MCF-7 cells (breast ER+ adenocarcinoma); assay: Mosmann MTT cell viability test, MCF-7; format: cell-based, human; details: for IC50: Homo sapiens, MCF7, MCF-7, MTT, 72 h exposure, ± standard deviation; for Selectivity index (SI): IC50 HEK-293 / IC50 MCF-7
Experimental: as §3, §2, §4

[4] = tested on: all cancer cell lines (five leukemia, MCF-7, MDA-MB-231); assay: MTT test, average over all cancer cell lines; format: cell-based, human; details: Avg. all cancers
Experimental: as §1, §2, §4

[5] = tested on: AR-230 cells (bcr-abl+ chronic myeloid leukemia); assay: Mosmann MTT cell viability test, AR-230; format: cell-based, human; details: for IC50: AR-230, MTT, 72 h exposure, ± standard deviation; for Selectivity index (SI): IC50 HEK-293 / IC50 AR-230
Experimental: as §3, §2, §4

[6] = tested on: normal human embryonic kidney cells, HEK-293; assay: Mosmann MTT cell viability test, HEK-293 (selectivity); format: cell-based; details: HEK293, HEK-293 normal cells, 72 h exposure, ± standard deviation
Experimental: as §3, §2, §4

[7] = tested on: BV-173 cells (bcr-abl+ chronic myeloid leukemia); assay: Mosmann MTT cell viability test, BV-173; format: cell-based, human; details: for IC50: Homo sapiens, BV-173, MTT, 72 h exposure, ± standard deviation; for Selectivity index (SI): IC50 HEK-293 / IC50 BV-173
Experimental: as §3, §2, §4

[8] = tested on: leukemia cell lines (BV-173, K-562, SKW-3, AR-230, and HL-60); assay: MTT test, average over leukemia cell lines; format: cell-based, human; details: Avg. leukemia
Experimental: as §1, §2, §4

MDA-MB-231 cells (TNBC) = assay: Mosmann MTT cell viability test, MDA-MB-231; format: cell-based, human; details: for IC50: Homo sapiens, MDA-MB-231, MTT, 72 h exposure, ± standard deviation; for Selectivity index (SI): IC50 HEK-293 / IC50 MDA-MB-231
Experimental: as §3, §2, §4

[9] = tested on: K-562 cells (bcr-abl+ chronic myeloid leukemia); assay: Mosmann MTT cell viability test, K-562; format: cell-based, human; details: for IC50: Homo sapiens, K562, K-562, MTT, 72 h exposure, ± standard deviation; for Selectivity index (SI): IC50 HEK-293 / IC50 K-562
Experimental: as §3, §2, §4

[10] = tested on: SKW-3 cells (T-cell leukemia); assay: Mosmann MTT cell viability test, SKW-3; format: cell-based, human; details: for IC50: SKW-3, MTT, 72 h exposure, ± standard deviation; for Selectivity index (SI): IC50 HEK-293 / IC50 SKW-3
Experimental: as §3, §2, §4

| SMILES | IC50 [2] [µM] | IC50 [3] [µM] | IC50 [5] | IC50 ([5]; Homo sapiens, read-out: IC50) [µM] | IC50 [7] [µM] | IC50 (MDA-MB-231 cells (TNBC)) [µM] | IC50 [9] [µM] | IC50 ([10]; Homo sapiens, SKW3, 72 h) [µM] | IC50 [10] [µM] | Selectivity index (SI) [1] | Selectivity index (SI) [2] | Selectivity index (SI) [3] | Selectivity index (SI) [4] | Selectivity index (SI) [5] | IC50 [6] [µM] | Selectivity index (SI) [7] | Selectivity index (SI) [8] | Selectivity index (SI) (MDA-MB-231 cells (TNBC)) | Selectivity index (SI) [9] | Selectivity index (SI) [10] |
| --- | --- | --- | --- | --- | --- | --- | --- | --- | --- | --- | --- | --- | --- | --- | --- | --- | --- | --- | --- | --- |
| COc1ccc(C(=O)NN=Cc2cccc(OC)c2O)cc1 [Compound 3, N′-(2-hydroxy-3-methoxybenzylidene)-4-methoxybenzohydrazide] | 2.4 ± 0.1 | 36.1 ± 4.4 | not active | > 100 | 2.7 ± 0.2 | 23.5 ± 3.4 | 2.8 ± 0.4 | 2.7 ± 0.3 | – | >4 | >42 | >3 | >20 | >1 | > 100 | >19 | >27 | >4 | >36 | >37 |
| COc1ccccc1C(=O)NN=Cc1cccc(OC)c1O [Compound 1, N′-(2-hydroxy-3-methoxybenzylidene)-2-methoxybenzohydrazide] | 11.2 ± 2.1 | 30.1 ± 3.2 | – | 50.5 ± 6.6 | 33.5 ± 3.4 | 22 ± 2.8 | 20.4 ± 2.9 | 4.3 ± 0.5 | – | >4 | >9 | >3 | >7 | >2 | > 100 | >3 | >8 | >5 | >5 | >23 |
| COc1cccc(C(=O)NN=Cc2cccc(OC)c2O)c1 [Compound 2, N′-(2-hydroxy-3-methoxybenzylidene)-3-methoxybenzohydrazide] | 3.6 ± 0.3 | 25.6 ± 2.8 | – | 5.9 ± 0.7 | 2.7 ± 0.2 | 26.9 ± 3.3 | 2.1 ± 0.1 | 1.4 ± 0.1 | – | 1 | 5 | 1 | 5 | 3 | 16.8 ± 2.3 | 6 | 7 | 1 | 8 | 12 |

Further lines, with some results ahead:

| IC50 [2] [µM] | IC50 [3] [µM] | IC50 [5] | IC50 ([5]; Homo sapiens, read-out: IC50) [µM] | IC50 [7] [µM] | IC50 (MDA-MB-231 cells (TNBC)) [µM] | IC50 [9] [µM] | IC50 ([10]; Homo sapiens, SKW3, 72 h) [µM] | IC50 [10] [µM] | SMILES | Selectivity index (SI) [1] | Selectivity index (SI) [2] | Selectivity index (SI) [3] | Selectivity index (SI) [4] | Selectivity index (SI) [5] | IC50 [6] [µM] | Selectivity index (SI) [7] | Selectivity index (SI) [8] | Selectivity index (SI) (MDA-MB-231 cells (TNBC)) | Selectivity index (SI) [9] | Selectivity index (SI) [10] |
| --- | --- | --- | --- | --- | --- | --- | --- | --- | --- | --- | --- | --- | --- | --- | --- | --- | --- | --- | --- | --- |
| 4.7 ± 0.5 | 21.3 ± 1.9 | – | 1.1 ± 0.2 | 1.4 ± 0.2 | 60.1 ± 5 | 1.5 ± 0.1 | < 1 | 0.5 ± 0.1 | COc1ccc(C(=O)NN=Cc2ccc(OC)cc2O)cc1 [Compound 5, N′-(2-hydroxy-4-methoxybenzylidene)-4-methoxybenzohydrazide] | – | 2 | – | 7 | 9 | 10.4 ± 1.1 | 7 | 9 | – | 7 | 21 |
| 2.1 ± 0.2 | 23.3 ± 2.7 | – | 4.5 ± 0.4 | 2.2 ± 0.3 | 19.8 ± 3.1 | 1.6 ± 0.2 | < 1 | 0.8 ± 0.1 | COc1cccc(C(=O)NN=Cc2ccc(OC)cc2O)c1 [Compound 4, N′-(2-hydroxy-4-methoxybenzylidene)-3-methoxybenzohydrazide] | – | 4 | – | 4 | 2 | 8.6 ± 1.5 | 4 | 5 | – | 5 | 11 |
